According to patent publication US8993593B2, “N-(4-(6-fluoro-3,4-dihydroisoquinolin-2(1H)-yl)-2,6-dimethylphenyl)-3,3-dimethylbutanamide as potassium channel modulators” (Valeant Pharmaceuticals International, priority 2006, dated 2015):
pEC50: −log10 of the molar value.

Key:
KCNQ1/NE1 = KCNQ1/NE1 (Homo sapiens, UniProt P51787); test: Two-electrode voltage-clamp in Xenopus laevis oocytes, KCNQ1/KCNE1; type: cell-based; design: dose or concentration left out as unconfirmed; settings: oocyte expression
Chain of KCNQ1/NE1 (P51787 whole entry): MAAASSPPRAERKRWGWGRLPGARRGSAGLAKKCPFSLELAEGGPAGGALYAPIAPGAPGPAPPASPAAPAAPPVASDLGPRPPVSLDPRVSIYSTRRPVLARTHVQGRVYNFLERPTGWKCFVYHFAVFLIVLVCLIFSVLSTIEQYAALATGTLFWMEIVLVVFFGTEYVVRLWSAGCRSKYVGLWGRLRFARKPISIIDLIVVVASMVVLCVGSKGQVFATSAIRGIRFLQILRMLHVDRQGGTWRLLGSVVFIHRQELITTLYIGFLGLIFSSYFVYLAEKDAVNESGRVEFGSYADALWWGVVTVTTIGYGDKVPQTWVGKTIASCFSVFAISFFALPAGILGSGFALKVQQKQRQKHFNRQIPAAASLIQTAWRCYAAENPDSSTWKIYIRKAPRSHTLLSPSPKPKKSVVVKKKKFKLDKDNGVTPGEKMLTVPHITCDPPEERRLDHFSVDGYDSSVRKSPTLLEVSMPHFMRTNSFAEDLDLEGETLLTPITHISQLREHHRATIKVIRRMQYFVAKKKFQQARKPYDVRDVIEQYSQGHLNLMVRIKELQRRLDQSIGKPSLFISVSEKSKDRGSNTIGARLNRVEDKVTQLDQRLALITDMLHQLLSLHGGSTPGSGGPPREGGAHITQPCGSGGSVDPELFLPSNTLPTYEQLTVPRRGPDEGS
Protocol: (§1) Female Xenopus laevis extracted ovaries were purchased from eNASCO (LM00935MX, eNASCO Fort Atkinson, Wis.). […] Approximately 50 nl cRNA (about 50 ng) was injected for KCNQ1, KCNQ4, and KCNQ5 using a Nanoject microinjector (Drummond, Broomall, Pa., USA). For co-expression of KCNQ2 and KCNQ3 and of KCNQ1 and KCNE1, cRNA's were mixed in equal molar ratios before injection of approximately 50 nl. […] Oocytes were kept in Culture Barth solution at 19° C. which was changed daily and currents were recorded after 3 to 5 days.
KCNQ channel currents expressed in Xenopus laevis oocytes were recorded using a two-electrode voltage-clamp. […]
(§2) Data were acquired by means of an Axograph X software (Axograph Scientific, Sydney, AU) and analyzed using Graph Pad Prism (GraphPad Software Inc., CA, USA). […]
(§3) After steady channel current was recorded in the presence of Retigabine at its EC75, recorded oocyte was washed with the recording solution until its steady current returned to its normal level without the presence of any drugs. Then the channel steady current was recorded in the presence of the test compound at its EC75. The percent efficacy was then expressed as: % efficacy=(C2/C 1)×100 where C2 is the recorded steady current in the presence of follow-on compound at its EC75 and C1 is the recorded steady current in the presence of Retigabine at its EC75.

KCNQ5 = KCNQ5 (Homo sapiens, UniProt Q9NR82); test: Two-electrode voltage-clamp in Xenopus laevis oocytes, KCNQ5; type: cell-based
Protocol: as §1
KCNQ channel currents expressed in Xenopus laevis oocytes were recorded using a two-electrode voltage-clamp. […] The oocytes were placed in custom built perfusion chambers connected to a continuous flow system and impaled with a current electrode and a voltage-clamp electrode pulled from borosilicate glass on a Flaming/Brown Micropipette Puller (Sutter Instruments Co, Novato, Calif., USA).
All compounds were dissolved in DMSO to obtain concentrated stock solutions. On the day of electrophysiological experiments the stock solutions were thawed and diluted in recording solution to their final concentrations. The final DMSO concentration never exceeded 0.1%. Compound delivery was performed using a custom built multi-barrel apparatus connected to the flow system.
as §2, §3

[1] = Open field test (acute toxicity); settings: Sprague-Dawley, in vivo, oral, rat, read-out: TD50, motor impairment
Text: Before MES test, compound treated rats are visually observed for acute toxicity signs for approximately one minute in the open field test. Here, rats are gently placed into a plexiglass enclosure and are monitored for behavior consistent with toxicity including ataxia, trembling, hypoactivity (including failure to seek the walls), hypersensitivity, lack of exploratory behavior and lack of avoidance of the open area. […] Motor impairment, as judged by this test was not observed in the rat model and generated a TD50 value of greater than 5 mg/kg.

hERG = hERG (Homo sapiens, UniProt Q12809); test: cell-based
Chain of hERG (Q12809 whole entry): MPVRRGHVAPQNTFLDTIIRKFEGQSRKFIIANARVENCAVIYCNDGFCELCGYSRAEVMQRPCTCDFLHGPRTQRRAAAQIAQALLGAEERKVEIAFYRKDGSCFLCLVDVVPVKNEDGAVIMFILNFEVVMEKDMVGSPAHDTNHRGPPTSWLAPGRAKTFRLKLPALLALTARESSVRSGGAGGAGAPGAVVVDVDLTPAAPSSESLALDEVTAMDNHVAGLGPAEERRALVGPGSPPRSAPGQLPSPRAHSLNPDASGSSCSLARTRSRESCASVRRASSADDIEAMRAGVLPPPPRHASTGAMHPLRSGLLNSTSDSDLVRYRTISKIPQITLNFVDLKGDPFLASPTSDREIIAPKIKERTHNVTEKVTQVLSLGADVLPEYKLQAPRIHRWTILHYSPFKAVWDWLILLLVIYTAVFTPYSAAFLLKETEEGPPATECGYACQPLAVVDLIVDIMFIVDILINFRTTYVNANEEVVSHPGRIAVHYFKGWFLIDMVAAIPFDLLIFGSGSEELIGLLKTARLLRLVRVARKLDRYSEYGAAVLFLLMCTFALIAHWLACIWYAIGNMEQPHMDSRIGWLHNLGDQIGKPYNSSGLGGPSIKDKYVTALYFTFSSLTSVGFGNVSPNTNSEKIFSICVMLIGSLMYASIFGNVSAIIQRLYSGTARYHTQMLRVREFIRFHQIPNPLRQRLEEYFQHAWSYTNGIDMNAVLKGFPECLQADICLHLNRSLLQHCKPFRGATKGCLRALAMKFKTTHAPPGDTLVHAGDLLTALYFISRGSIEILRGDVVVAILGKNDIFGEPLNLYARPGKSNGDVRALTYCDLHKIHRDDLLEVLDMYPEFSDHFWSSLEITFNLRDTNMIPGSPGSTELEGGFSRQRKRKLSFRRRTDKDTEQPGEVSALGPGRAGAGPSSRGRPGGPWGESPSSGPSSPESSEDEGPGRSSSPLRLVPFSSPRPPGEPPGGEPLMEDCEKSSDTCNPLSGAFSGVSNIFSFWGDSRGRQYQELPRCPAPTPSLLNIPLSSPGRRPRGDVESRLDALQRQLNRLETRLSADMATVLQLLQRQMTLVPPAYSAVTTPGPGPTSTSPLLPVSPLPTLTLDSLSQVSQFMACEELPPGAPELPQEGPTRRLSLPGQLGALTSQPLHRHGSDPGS

KCNQ2 channels = molecular target: T1, KCNQ2 channels (Homo sapiens, UniProt O43526); test: Potassium ion efflux, KCNQ2 channels expressed in CHO cells; type: cell-based
T1 construct: expressed in transfected cells; host or cells: CHO cells
T1 sequence (O43526 whole entry): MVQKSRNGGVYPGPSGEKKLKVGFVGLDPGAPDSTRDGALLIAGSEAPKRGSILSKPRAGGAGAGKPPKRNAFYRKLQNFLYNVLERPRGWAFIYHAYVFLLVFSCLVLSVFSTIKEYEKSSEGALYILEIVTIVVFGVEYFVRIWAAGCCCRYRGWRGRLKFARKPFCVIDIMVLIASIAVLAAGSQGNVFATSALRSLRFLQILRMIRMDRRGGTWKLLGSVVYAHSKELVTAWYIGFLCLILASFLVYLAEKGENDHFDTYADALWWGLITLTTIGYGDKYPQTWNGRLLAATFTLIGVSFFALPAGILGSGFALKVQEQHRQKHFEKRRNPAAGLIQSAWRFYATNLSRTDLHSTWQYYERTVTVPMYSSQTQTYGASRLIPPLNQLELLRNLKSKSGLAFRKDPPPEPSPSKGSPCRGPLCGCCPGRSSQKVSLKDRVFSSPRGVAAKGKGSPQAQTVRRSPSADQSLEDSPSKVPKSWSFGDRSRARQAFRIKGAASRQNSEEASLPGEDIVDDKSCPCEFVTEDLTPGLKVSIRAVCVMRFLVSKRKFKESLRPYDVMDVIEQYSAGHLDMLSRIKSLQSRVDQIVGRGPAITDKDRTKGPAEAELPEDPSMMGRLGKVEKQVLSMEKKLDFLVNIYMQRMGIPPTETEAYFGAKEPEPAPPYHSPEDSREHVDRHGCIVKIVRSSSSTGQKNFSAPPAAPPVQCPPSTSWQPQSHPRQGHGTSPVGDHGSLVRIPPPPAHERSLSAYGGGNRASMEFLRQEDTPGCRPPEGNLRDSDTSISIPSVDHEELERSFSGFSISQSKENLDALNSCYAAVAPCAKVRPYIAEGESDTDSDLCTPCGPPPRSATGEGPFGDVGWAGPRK
Protocol: Using natively expressed M-currents present in differentiated pheochromocytoma (PC-12) cells and CHO cells transfected with KCNQ2 and hERG potassium channels, the in vitro activity of compound A on potassium ion efflux was determined.
The EC50 values for retigabine and compound A on the activation of KCNQ2 channels expressed in CHO cells were determined on three separate occasions in triplicate.

Cc1cc(N2CCc3cc(F)ccc3C2)cc(C)c1NC(=O)CC(C)(C)C [compound A, N-[4-(6-fluoro-3,4-dihydro-1H-isoquinolin-2-yl)-2,6-dimethylphenyl]-3,3-dimethyl butanamide]
KCNQ1/NE1 Block (%) (KCNQ1/NE1): 3.5%
pEC50 (KCNQ5): 6.46
KCNQ5 Efficacy Relative to Retigabine (%) (KCNQ5; oocyte expression, at EC75): 100%
TD50 at 1 min [1]: > 5 mg/kg
pEC50 (hERG): < 4.52
pEC50 (KCNQ2 channels): 7.96
